Experimental data: US12258328B2, “6-membered heteroaryl-containing aminopyridine compounds as EGFR inhibitors” (YUHAN CORPORATION, priority 2021, dated 2025)
Read-outs that look alike come from different tables or passages of the source.

Tests used:
[1] = biological target: EGFR wildtype (Homo sapiens, UniProt P00533); experiment: Biochemical EGFR kinase assay (Lance Ultra TR-FRET), wildtype
Procedure, shortened: (§1)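 Kinase activity is measured by TR-FRET phosphopeptide detection. Compounds span 0.003 μM to 10 μM; the 1 h reaction at room temperature is quenched with EDTA, then labelled antibody (2 nM) is incubated 60 min before reading.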

[2] = biological target: EGFR L858R/T790M/C797S (Homo sapiens, UniProt P00533, C797S/L858R/T790M); experiment: Biochemical EGFR kinase assay (Lance Ultra TR-FRET), triple mutant L858R/T790M/C797S
Sequence of EGFR L858R/T790M/C797S (P00533 25-1210 T790M/C797S/L858R): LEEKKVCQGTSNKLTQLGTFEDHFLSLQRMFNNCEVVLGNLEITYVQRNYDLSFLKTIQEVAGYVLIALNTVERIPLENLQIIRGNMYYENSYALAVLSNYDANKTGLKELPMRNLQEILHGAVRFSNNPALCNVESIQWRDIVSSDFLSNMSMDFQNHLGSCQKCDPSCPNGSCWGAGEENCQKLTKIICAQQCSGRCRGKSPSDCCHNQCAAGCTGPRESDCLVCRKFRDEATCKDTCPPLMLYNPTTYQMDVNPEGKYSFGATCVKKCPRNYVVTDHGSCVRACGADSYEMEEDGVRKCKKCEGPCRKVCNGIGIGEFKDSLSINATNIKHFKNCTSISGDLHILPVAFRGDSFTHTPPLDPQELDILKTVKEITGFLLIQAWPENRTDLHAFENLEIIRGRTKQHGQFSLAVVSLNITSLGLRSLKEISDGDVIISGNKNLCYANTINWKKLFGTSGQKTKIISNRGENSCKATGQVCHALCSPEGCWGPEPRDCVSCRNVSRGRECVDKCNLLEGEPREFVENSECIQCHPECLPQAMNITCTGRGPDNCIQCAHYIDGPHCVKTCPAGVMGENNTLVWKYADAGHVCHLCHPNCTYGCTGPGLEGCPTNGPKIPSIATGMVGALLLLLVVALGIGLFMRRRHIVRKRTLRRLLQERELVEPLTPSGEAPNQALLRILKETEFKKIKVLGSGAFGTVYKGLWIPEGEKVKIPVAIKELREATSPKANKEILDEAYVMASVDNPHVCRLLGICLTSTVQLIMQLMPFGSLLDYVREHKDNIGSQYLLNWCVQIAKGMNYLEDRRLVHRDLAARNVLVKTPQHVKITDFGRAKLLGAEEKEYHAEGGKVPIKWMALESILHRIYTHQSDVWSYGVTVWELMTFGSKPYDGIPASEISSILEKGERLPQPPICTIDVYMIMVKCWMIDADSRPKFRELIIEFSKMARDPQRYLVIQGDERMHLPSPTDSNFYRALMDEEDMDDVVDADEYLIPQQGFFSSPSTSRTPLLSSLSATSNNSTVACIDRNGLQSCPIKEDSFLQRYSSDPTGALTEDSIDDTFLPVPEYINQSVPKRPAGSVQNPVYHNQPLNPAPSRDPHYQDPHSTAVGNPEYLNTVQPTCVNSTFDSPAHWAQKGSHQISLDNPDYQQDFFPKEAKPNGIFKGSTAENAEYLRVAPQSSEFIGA
Procedure, shortened: as §1

[3] = biological target: EGFR del19/T790M/C797S (Homo sapiens, UniProt P00533, C797S/DEL746-750/T790M); experiment: Biochemical EGFR kinase assay (Lance Ultra TR-FRET), triple mutant del19/T790M/C797S
Sequence of EGFR del19/T790M/C797S (P00533 with tags, fused parts or gaps DEL746-750/T790M/C797S): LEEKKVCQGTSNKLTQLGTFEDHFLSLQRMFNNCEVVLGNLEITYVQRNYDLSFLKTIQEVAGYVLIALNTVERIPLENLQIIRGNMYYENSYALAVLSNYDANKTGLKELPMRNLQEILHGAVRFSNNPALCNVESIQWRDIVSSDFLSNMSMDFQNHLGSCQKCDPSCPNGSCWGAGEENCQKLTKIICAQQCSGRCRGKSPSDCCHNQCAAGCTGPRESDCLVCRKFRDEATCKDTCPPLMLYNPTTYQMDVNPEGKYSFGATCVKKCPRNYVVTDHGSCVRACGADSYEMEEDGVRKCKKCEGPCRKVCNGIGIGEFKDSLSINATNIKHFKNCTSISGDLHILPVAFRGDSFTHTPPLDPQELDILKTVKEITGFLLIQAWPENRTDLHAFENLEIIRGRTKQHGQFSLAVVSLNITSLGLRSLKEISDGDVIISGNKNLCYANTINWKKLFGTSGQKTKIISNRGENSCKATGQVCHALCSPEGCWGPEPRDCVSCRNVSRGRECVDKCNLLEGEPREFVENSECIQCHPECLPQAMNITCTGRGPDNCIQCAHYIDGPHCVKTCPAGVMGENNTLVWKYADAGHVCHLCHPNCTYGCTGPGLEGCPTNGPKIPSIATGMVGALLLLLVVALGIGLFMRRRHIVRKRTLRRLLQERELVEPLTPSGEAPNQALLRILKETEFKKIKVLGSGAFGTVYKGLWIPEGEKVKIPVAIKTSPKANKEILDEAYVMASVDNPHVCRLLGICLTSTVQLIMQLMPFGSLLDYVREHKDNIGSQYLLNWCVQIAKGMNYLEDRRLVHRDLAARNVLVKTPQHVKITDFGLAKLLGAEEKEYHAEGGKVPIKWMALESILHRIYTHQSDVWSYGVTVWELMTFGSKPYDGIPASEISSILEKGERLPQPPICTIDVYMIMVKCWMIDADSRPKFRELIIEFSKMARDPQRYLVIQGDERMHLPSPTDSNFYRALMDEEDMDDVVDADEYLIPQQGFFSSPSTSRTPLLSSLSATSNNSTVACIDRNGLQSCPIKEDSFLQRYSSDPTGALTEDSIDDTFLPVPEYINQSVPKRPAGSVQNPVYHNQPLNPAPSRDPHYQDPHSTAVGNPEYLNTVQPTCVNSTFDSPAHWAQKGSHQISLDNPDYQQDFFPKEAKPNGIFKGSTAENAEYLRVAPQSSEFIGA
Procedure, shortened: as §1

[4] = biological target: EGFR del19/C797S (Homo sapiens, UniProt P00533, C797S/DEL746-750); experiment: Biochemical EGFR kinase assay (Lance Ultra TR-FRET), double mutant del19/C797S
Sequence of EGFR del19/C797S (P00533 with tags, fused parts or gaps DEL746-750/C797S): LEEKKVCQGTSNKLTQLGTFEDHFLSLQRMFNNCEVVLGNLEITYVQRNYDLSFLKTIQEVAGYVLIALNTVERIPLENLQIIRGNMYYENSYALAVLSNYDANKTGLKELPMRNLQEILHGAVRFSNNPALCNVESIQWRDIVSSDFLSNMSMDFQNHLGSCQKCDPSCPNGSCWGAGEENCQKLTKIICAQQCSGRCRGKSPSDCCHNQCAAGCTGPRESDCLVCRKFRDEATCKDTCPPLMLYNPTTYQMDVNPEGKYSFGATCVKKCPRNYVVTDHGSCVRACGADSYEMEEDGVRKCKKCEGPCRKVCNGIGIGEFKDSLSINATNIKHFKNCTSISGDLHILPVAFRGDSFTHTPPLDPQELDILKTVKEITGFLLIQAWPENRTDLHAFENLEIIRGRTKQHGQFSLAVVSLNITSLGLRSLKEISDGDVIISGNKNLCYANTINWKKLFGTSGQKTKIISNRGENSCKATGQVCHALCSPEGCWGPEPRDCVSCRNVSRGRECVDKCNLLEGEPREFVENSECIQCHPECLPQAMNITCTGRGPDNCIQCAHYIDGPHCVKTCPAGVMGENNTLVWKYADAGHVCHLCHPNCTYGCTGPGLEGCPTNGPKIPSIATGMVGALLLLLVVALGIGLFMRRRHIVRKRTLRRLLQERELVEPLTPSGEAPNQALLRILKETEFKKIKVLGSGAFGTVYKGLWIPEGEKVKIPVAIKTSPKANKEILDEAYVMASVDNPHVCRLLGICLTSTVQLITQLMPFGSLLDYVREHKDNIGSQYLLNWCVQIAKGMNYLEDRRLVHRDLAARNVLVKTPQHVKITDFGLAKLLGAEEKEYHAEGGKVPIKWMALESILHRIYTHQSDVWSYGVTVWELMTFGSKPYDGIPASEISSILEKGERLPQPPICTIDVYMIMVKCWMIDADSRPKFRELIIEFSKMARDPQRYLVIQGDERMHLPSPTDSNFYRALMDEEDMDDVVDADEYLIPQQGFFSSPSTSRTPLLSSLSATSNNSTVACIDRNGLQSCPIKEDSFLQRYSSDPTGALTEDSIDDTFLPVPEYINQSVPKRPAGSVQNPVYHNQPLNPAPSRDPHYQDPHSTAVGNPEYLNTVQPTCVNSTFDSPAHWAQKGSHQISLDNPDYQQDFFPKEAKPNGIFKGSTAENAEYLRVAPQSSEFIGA
Procedure, shortened: as §1

[5] = biological target: EGFR L858R/C797S (Homo sapiens, UniProt P00533, C797S/L858R); experiment: Biochemical EGFR kinase assay (Lance Ultra TR-FRET), double mutant L858R/C797S
Sequence of EGFR L858R/C797S (P00533 25-1210 C797S/L858R): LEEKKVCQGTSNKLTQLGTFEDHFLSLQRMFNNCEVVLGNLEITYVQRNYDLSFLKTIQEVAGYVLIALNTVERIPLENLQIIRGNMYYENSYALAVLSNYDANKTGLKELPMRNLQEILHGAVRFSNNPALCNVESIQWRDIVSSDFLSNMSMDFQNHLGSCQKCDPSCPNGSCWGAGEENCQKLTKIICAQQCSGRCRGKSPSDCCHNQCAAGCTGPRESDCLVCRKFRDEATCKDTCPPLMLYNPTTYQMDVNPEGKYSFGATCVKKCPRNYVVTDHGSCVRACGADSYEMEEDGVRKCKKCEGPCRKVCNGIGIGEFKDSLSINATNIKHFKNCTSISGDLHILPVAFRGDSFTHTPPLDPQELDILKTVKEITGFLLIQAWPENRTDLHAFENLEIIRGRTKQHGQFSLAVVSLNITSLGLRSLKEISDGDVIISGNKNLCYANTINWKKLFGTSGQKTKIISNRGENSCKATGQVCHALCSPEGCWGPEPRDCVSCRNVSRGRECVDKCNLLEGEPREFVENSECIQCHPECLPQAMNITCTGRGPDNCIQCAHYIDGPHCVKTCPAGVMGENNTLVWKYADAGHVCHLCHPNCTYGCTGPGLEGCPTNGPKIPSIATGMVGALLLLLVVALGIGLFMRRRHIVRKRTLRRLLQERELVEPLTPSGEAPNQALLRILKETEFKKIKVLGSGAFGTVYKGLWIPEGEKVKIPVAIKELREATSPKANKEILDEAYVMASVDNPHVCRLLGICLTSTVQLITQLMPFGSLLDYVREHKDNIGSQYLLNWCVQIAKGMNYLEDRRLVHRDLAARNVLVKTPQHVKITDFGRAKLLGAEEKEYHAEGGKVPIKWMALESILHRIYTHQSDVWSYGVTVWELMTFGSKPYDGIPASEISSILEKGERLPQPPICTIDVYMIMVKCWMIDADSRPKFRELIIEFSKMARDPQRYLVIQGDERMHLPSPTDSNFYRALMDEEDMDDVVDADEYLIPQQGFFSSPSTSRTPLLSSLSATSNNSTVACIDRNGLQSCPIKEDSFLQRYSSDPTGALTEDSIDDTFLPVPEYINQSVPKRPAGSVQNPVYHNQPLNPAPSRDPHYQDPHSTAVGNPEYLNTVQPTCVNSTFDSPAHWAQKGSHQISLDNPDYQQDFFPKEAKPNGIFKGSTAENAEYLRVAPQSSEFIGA
Procedure, shortened: as §1

[6] = ATP at Km, read-out: IC50 WT, Km ATP
[7] = IC50 L858R/T790M/C797S, 100 μM ATP
[8] = ATP at Km, read-out: IC50 del19/T790M/C797S, Km ATP
[9] = IC50 del19/T790M/C797S, 100 μM ATP
[10] = ATP at Km, read-out: IC50 del19/C797S, Km ATP
[11] = ATP at Km, read-out: IC50 L858R/C797S, Km ATP
[12] = ATP at Km, read-out: IC50 L858R/T790M/C797S, Km ATP
[13] = Km ATP, read-out: IC50 WT (nM) Km ATP
[14] = Km ATP, read-out: IC50 L858R/T790M/C797S (nM) Km ATP
[15] = Km ATP, read-out: IC50 del19/T790M/C797S (nM) Km ATP
[16] = Km ATP, read-out: IC50 del19/C797S (nM) Km ATP
[17] = Km ATP, read-out: IC50 L858R/C797S (nM) Km ATP
[18] = IC50 WT (nM) 100 μM ATP, 100 μM ATP
[19] = IC50 L858R/T790M/C797S (nM) 100 μM ATP, 100 μM ATP
[20] = IC50 del19/T790M/C797S (nM) 100 μM ATP, 100 μM ATP
[21] = IC50 del19/C797S (nM) 100 μM ATP, 100 μM ATP
[22] = IC50 L858R/C797S (nM) 100 μM ATP, 100 μM ATP

| IC50 [1, 6] [nM] | IC50 ([1]; IC50 WT, 100 μM ATP) [nM] | IC50 [2, 7] [nM] | IC50 [3, 8] [nM] | IC50 [3, 9] [nM] | IC50 [4, 10] [nM] | IC50 ([4]; IC50 del19/C797S, 100 μM ATP) [nM] | IC50 [5, 11] [nM] | IC50 ([5]; IC50 L858R/C797S, 100 μM ATP) [nM] | IC50 [2, 12] [nM] | IC50 [1, 13] [nM] | IC50 [2, 14] [nM] | IC50 [3, 15] [nM] | IC50 [4, 16] [nM] | IC50 [5, 17] [nM] | IC50 [1, 18] [nM] | IC50 [2, 19] [nM] | IC50 [3, 20] [nM] | IC50 [4, 21] [nM] | IC50 [5, 22] [nM] | Structure (SMILES) |
| --- | --- | --- | --- | --- | --- | --- | --- | --- | --- | --- | --- | --- | --- | --- | --- | --- | --- | --- | --- | --- |
| 2 | > 10000 | 0.6 | 1.9 | 5.1 | 1.2 | 2.4 | 1.1 | 2.4 |  |  |  |  |  |  |  |  |  |  |  | CN(C)S(=O)(=O)c1ccc(-c2cnc(Nc3ccnc(-c4cnn(S(=O)(=O)C5CC5)c4)n3)cc2N[C@H]2CC[C@@H](CO)CC2)nc1 [Example 166, 6′-((2-(1-(Cyclopropylsulfonyl)-1H-pyrazol-4-yl)pyrimidin-4-yl)amino)-4′-(((1s,4s)-4-(hydroxymethyl)cyclohexyl)amino)-N,N-dimethyl-[2,3′-bipyridine]-5-sulfonamide] |
| 27.4 | > 10000 |  | 1 | 1.7 | 2.3 | 6.5 | 1.6 | 26.4 | 0.3 |  |  |  |  |  |  |  |  |  |  | C[C@]1(O)CC[C@@H](Nc2nccc(-c3cnc(Nc4ccnc(-c5cnn(S(=O)(=O)C6CC6)c5)n4)cc3N[C@H]3CC[C@@](C)(O)CC3)n2)CC1 [Example 191, (1s,4s)-4-((4-(6-((2-(1-(Cyclopropylsulfonyl)-1H-pyrazol-4-yl)pyrimidin-4-yl)amino)-4-(((1s,4s)-4-hydroxy-4-methylcyclohexyl)amino)pyridin-3-yl)pyrimidin-2-yl)amino)-1-methylcyclohexan-1-ol] |
|  |  |  |  |  |  |  |  |  |  | 21 | 0.7 | 1.6 | 2.4 | 1.8 |  |  |  |  |  | C[C@]1(O)CC[C@@H](Nc2cc(Nc3ccnc(-c4cnn(S(=O)(=O)C5CC5)c4)n3)ncc2-c2ccc(OC(F)F)cn2)CC1 [Example 332, (1s,4s)-4-((6′-((2-(1-(Cyclopropylsulfonyl)-1H-pyrazol-4-yl)pyrimidin-4-yl)amino)-5-(difluoromethoxy)-[2,3′-bipyridin]-4′-yl)amino)-1-methylcyclohexan-1-ol] |
|  |  |  |  |  |  |  |  |  |  | 13.7 |  | 1.6 | 1.8 | 0.6 | > 10000 | 1 | 1.1 | 5 | 6.2 | CC(O)c1cccc(-c2cnc(Nc3ccnc(-c4cnn(S(=O)(=O)C5CC5)c4)n3)cc2NC2CCC(C)(O)CC2)n1 (stereo not shown) [Example 23, (1s,4s)-4-((6′-((2-(1-(Cyclopropylsulfonyl)-1H-pyrazol-4-yl)pyrimidin-4-yl)amino)-6-(1-hydroxyethyl)-[2,3′-bipyridin]-4′-yl)amino)-1-methylcyclohexan-1-ol] |
|  |  |  |  |  |  |  |  |  |  | 0.8 | 0.02 | 0.1 | 0.3 | 0.1 |  |  |  |  |  | CN1CCC(Oc2cnc(-c3cnc(Nc4ccnc(-c5cnn(S(=O)(=O)C6CC6)c5)n4)cc3N[C@H]3CC[C@@H](CO)CC3)cn2)CC1 [Example 146, ((1s,4s)-4-((2-((2-(1-(Cyclopropylsulfonyl)-1H-pyrazol-4-yl)pyrimidin-4-yl)amino)-5-(5-((1-methylpiperidin-4-yl)oxy)pyrazin-2-yl)pyridin-4-yl)amino)cyclohexyl)methanol] |
|  |  |  |  |  |  |  |  |  |  | 116 | 0.5 | 1.4 | 12.6 | 12.9 |  |  |  |  |  | O=S(=O)(C1CC1)n1cc(-c2nccc(Nc3cc(N[C@H]4CC[C@@H](CO)CC4)c(-c4cnc(OC(F)F)cn4)cn3)n2)cn1 [Example 129, ((1s,4s)-4-((2-((2-(1-(Cyclopropylsulfonyl)-1H-pyrazol-4-yl)pyrimidin-4-yl)amino)-5-(5-(difluoromethoxy)pyrazin-2-yl)pyridin-4-yl)amino)cyclohexyl)methanol] |
| 3 | 5140 | 0.1 | 0.2 | 0.3 | 0.4 | 1 | 0.8 | 44 | 0.1 |  |  |  |  |  |  |  |  |  |  | CN(C)CCOc1ccnc(-c2cnc(Nc3ccnc(-c4cnn(S(=O)(=O)C5CC5)c4)n3)cc2N[C@H]2CC[C@@](C)(O)CC2)c1 [Example 287, (1s,4s)-4-((6′-((2-(1-(Cyclopropylsulfonyl)-1H-pyrazol-4-yl)pyrimidin-4-yl)amino)-4-(2-(dimethylamino)ethoxy)-[2,3′-bipyridin]-4′-yl)amino)-1-methylcyclohexan-1-ol] |
|  |  |  |  |  |  |  |  |  |  | 14.8 | 0.5 | 0.3 | 0.6 | 1 | > 10000 | 0.7 | 0.4 | 0.9 | 7.4 | Cc1cnc(-c2cnc(Nc3ccnc(-c4cnn(S(=O)(=O)C5CC5)c4)n3)cc2N[C@H]2CC[C@@](C)(O)CC2)cn1 [Example 59, (1s,4s)-4-((2-((2-(1-(Cyclopropylsulfonyl)-1H-pyrazol-4-yl)pyrimidin-4-yl)amino)-5-(5-methylpyrazin-2-yl)pyridin-4-yl)amino)-1-methylcyclohexan-1-ol] |
|  |  |  |  |  |  |  |  |  |  |  |  |  |  |  | 2910 | 0.1 | 0.1 | 0.4 | 2 | CN(C)Cc1cccc(-c2cnc(Nc3ccnc(-c4cnn(S(=O)(=O)C5CC5)c4)n3)cc2N[C@H]2CC[C@@](C)(O)CC2)n1 [Example 30, (1s,4s)-4-((6′-((2-(1-(Cyclopropylsulfonyl)-1H-pyrazol-4-yl)pyrimidin-4-yl)amino)-6-((dimethylamino)methyl)-[2,3′-bipyridin]-4′-yl)amino)-1-methylcyclohexan-1-ol] |
| 2910 |  |  | 15.4 |  | 82.1 |  | 357 |  | 21.7 |  |  |  |  |  |  |  |  |  |  | O=S(=O)(C1CC1)n1cc(-c2nccc(Nc3cc(NC4CCC(F)CC4)c(-c4ccc(N5CCC(F)(F)CC5)nn4)cn3)n2)cn1 (stereo not shown) [Example 267, N^2-(2-(1-(Cyclopropylsulfonyl)-1H-pyrazol-4-yl)pyrimidin-4-yl)-5-(6-(4,4-difluoropiperidin-1-yl)pyridazin-3-yl)-N^4-(4-fluorocyclohexyl)pyridine-2,4-diamine] |
|  |  |  |  |  |  |  |  |  |  | 11.7 | 2 | 4.5 | 5.1 | 6.8 | > 10000 | 3.6 | 5.7 | 23.2 | 6.9 | C[C@]1(O)CC[C@@H](Nc2cc(Nc3ccnc(-c4cnn(S(=O)(=O)C5CC5)c4)n3)ncc2-c2cc(CN3CCC(F)(F)CC3)ccn2)CC1 [Example 112, (1s,4s)-4-((6′-((2-(1-(Cyclopropylsulfonyl)-1H-pyrazol-4-yl)pyrimidin-4-yl)amino)-4-((4,4-difluoropiperidin-1-yl)methyl)-[2,3′-bipyridin]-4′-yl)amino)-1-methylcyclohexan-1-ol] |
|  |  |  |  |  |  |  |  |  |  | 24.7 | 0.3 | 0.5 |  | 14.1 | > 10000 | 2.1 | 0.6 | 5.8 | 83.3 | C[C@]1(O)CC[C@@H](Nc2cc(Nc3ccnc(-c4cnn(S(=O)(=O)C5CC5)c4)n3)ncc2-c2cc(N3CCOCC3)ccn2)CC1 [Example 48, (1s,4s)-4-((6′-((2-(1-(Cyclopropylsulfonyl)-1H-pyrazol-4-yl)pyrimidin-4-yl)amino)-4-morpholino-[2,3′-bipyridin]-4′-yl)amino)-1-methylcyclohexan-1-ol] |
|  |  |  |  |  |  |  |  |  |  | 11.4 | 2.8 | 3.8 | 2.5 | 2.3 | 4410 | 6.3 | 6.2 | 8.4 | 11.1 | C[C@]1(O)CC[C@@H](Nc2cc(Nc3ccnc(-c4cnn(S(=O)(=O)C5CC5)c4)n3)ncc2-c2ccc(N3CCCC3)cn2)CC1 [Example 80, (1s,4s)-4-((6′-((2-(1-(Cyclopropylsulfonyl)-1H-pyrazol-4-yl)pyrimidin-4-yl)amino)-5-(pyrrolidin-1-yl)-[2,3′-bipyridin]-4′-yl)amino)-1-methylcyclohexan-1-ol] |
| 216 |  |  | 15.1 |  | 72.7 |  | 31.6 |  | 3.9 |  |  |  |  |  |  |  |  |  |  | CC(C)(F)c1ccc(-c2cnc(Nc3ccnc(-c4cnn(S(=O)(=O)C5CC5)c4)n3)cc2NC2CCC(F)CC2)nc1 (stereo not shown) [Example 239, N^6′-(2-(1-(Cyclopropylsulfonyl)-1H-pyrazol-4-yl)pyrimidin-4-yl)-N^4′-(4-fluorocyclohexyl)-5-(2-fluoropropan-2-yl)-[2,3′-bipyridine]-4′,6′-diamine] |
